From patent EP1064284B1, “HYPNOTIC BETA-CARBOLINE DERIVATIVES, PROCESS FOR THEIR PREPARATION AND THEIR USE AS MEDICINAL PRODUCTS” (priority 1998, dated 1999)
“Also recorded” adds a separate entry of the source. Where two headings read alike, the source gives them in different places.

Experiments:
[1] = Absolute oral bioavailability (oral/IV) in Beagle dogs; type: in vivo
[2] = Stability in acidic medium (hydrolysis of cycle A in pH buffers, HPLC); type: physicochemical; conditions: for Hydrolysis rate (%) pH=1: pH=1 buffer; for Hydrolysis rate (%) pH=1 / Hydrolysis rate (%) pH=2 / Hydrolysis rate (%) pH=3 / Hydrolysis rate (%) pH=7 (reference): 30 µM in 5 ml, stirred 15 minutes at 37°C; for Hydrolysis rate (%) pH=2: pH=2 buffer; for Hydrolysis rate (%) pH=3: pH=3 buffer; for Hydrolysis rate (%) pH=7 (reference): pH=7 (reference) buffer
Method: In order to study the influence of R8 group on the stability of cycle A when comparing compounds EXAMPLE A and EXAMPLE B (R8 = hydrogen atom) to compounds of Example 1, Example 4, Example 7, Example 8 and Example 11, 30 µM of each of these compounds were dissolved into 5 ml of pH=1 or pH=2 or pH=3 or pH=7 (reference) buffer. Solutions were stirred for 15 minutes at 37°C. Subsequent measurements of compounds amounts non hydrolyzed were measured using a high performance liquid chromatography method. [drawing 18] Table I :
Compounds n°1, 4, 7, 8 and 11 are quite stable from pH=2, since less than 27 per cent of these compounds are hydrolysed at pH≥2.

[3] = test system: Beagle dogs; experiment: Hypnotic activity: effects on wakefulness / sleep states in Beagle dogs (EEG/EMG/EOG polygraph); type: in vivo; conditions: for Mean (± S.D.) duration of stages in 8 dogs (minutes) REM / Mean (± S.D.) latencies after administration (minutes) REM / Mean (± S.D.) duration of stages in 8 dogs (minutes) Drowsy / Mean (± S.D.) duration of stages in 8 dogs (minutes) SWS / Mean (± S.D.) duration of stages in 8 dogs (minutes) Sleep / Mean (± S.D.) duration of stages in 8 dogs (minutes) Wake / Mean (± S.D.) latencies after administration (minutes) Drowsy / Mean (± S.D.) latencies after administration (minutes) SWS: 120 minutes observation; for hypnotic effect in Beagle dogs (in words): oral
Method: Beagle dogs are kept in a metal cage, connected to 2 Schwartzer ED 24 Polygraph equipped with BRAINLAB® software, through a flexible cable. Test and control products are administered via the oral or intravenous routes by means of gastric tubes. Records are scored in 30 seconds epochs for active wake, drowsy, slow wave sleep (light sleep + deep sleep) and REM sleep. These criteria are according to SHELTON et al.( in SHELTON J., NISHINO S., VAUGHT J., DEMENT W.C. and MIGNOT E. Comparative effects of modafinil and amphetamine on daytime sleepiness and cataplexy of narcoleptic dogs. Sleep 19(1); 29-38, 1996.), based upon frequency and amplitude patterns of EEG cortical tracing (fronto-frontal), EMG (upper neck muscles) and EOG (bilateral). Behaviour is also continuously monitored for each observation period of 120 minutes. Prior acclimatisation of the dogs take 5 days; and, to mimic similar stress caused by gastric tubing, a mixture water/PEG (50/50; V/V) was administered orally together with intravenous boluses. • Wake : includes all episodes with low voltage mixed frequency tracing in which the EMG is not inhibited. […] Synchronous waves at 4 - 7 Hz and 50 - 100 µV appear on a background of low voltage fast-wave activity. […] EEG patterns are of higher amplitude than in the previous stage and sleep spindles ( 10 - 14 Hz) and / or K complexes must be present in light sleep, as EOG show slow eye movements or no movement. Deep sleep is scored when slow delta waves (< 4 Hz) constitute 20 p. cent of an epoch or more during deep sleep. • REM : rapid eye movement sleep is scored when dogs lay down, eyes closed with intermittent apparent fast muscle twitches. A low voltage mixed frequency EEG tracing is observed together with rapid eye movements and a drop in EMG activity.
Repartition and duration of wakefulness / sleep states in Beagle dogs have been measured after oral (and intravenous route for compoundof EXAMPLE 1) administrations of Placebo (vehicle = 10 ml of mixture ethanol / PEG 400 / water; 10 / 40 /50; V/V/V) compounds of Example 1, Example 4 and Example 7.
Results are presented in Tables II and III as Durations and Latencies of each stage.

[4] = dog, in vivo, Beagle dogs, fasting conditions, oral relative to intravenous route, read-out: Absolute bioavailability oral/IV in Beagle dogs (fasting conditions) 1 < gastric pH < 2

Structure (SMILES)	Hydrolysis rate (%) pH=1 [2]	Hydrolysis rate (%) pH=2 [2]	Hydrolysis rate (%) pH=3 [2]	Hydrolysis rate (%) pH=7 (reference) [2]	bioavailability ([1]; beagle, dog, in vivo)	hypnotic effect in Beagle dogs (in words) [3]	per cent of compounds hydrolysed at pH≥2 [2]	other results
COc1ccc2[nH]c3c(c2c1)CCN1C(=O)CCC=C31 [EXAMPLE A, reference compound]	100%	100%	100%	0%				bioavailability [1, 4]: < 1%; hydrolysis between pH=1 and pH=3 (in words) [2]: totally hydrolyzed
COc1ccc2[nH]c3c(c2c1)CCN1C(=O)CCCC31 (stereo not shown) [EXAMPLE B, reference compound]	95%	95%	90%	0%				Absolute bioavailability oral/IV in Beagle dogs (fasting conditions) 1 < gastric pH < 2 ([1]; Beagle dogs, fasting conditions, oral relative to intravenous route): <5%; bioavailability [1, 4]: < 5%; hydrolysis between pH=1 and pH=3 (in words) [2]: totally hydrolyzed
CCC1=C2c3[nH]c4ccc(OC)cc4c3CCN2C(=O)CC1 [Example 1, 9-methoxy-1-ethyl-2,3,4,6,7,12-hexahydroindolo [2,3-a] quinolizin-4-one]	79.5%	14.5%	8.7%	0%	> 35%	significant hypnotic effect; also recorded: potent hypnotic activity	less than 27 per cent	Absolute bioavailability oral/IV in Beagle dogs (fasting conditions) 1 < gastric pH < 2 ([1]; beagle, dog, in vivo): >35%; Mean (± S.D.) duration of stages in 8 dogs (minutes) REM ([3]; 2.5 µmol/Kg IV): 3.8 (3.9) minutes; Mean (± S.D.) latencies after administration (minutes) REM ([3]; 2.5 µmol/Kg IV): 79.9 (25.4) minutes; Mean (± S.D.) duration of stages in 8 dogs (minutes) REM ([3]; 2.5 µmol/Kg oral): 3.3 (3.4) minutes; Mean (± S.D.) latencies after administration (minutes) REM ([3]; 2.5 µmol/Kg oral): 82.9 (32.8) minutes; Mean (± S.D.) duration of stages in 8 dogs (minutes) REM ([3]; 5 µmol/Kg oral, Table II): 3.1 (3.7) minutes; Mean (± S.D.) latencies after administration (minutes) REM ([3]; 5 µmol/Kg oral, Table II): 79.3 (33.3) minutes; Mean (± S.D.) duration of stages in 8 dogs (minutes) REM ([3]; 10 µmol/Kg oral, Table II): 2.4 (3.5) minutes; Mean (± S.D.) latencies after administration (minutes) REM ([3]; 10 µmol/Kg oral, Table II): 101.9 (27.3) minutes
COc1ccc2[nH]c3c(c2c1)CCN1C(=O)CCC(c2ccccc2)=C31 [Example 4, 9-methoxy-1-phenyl-2,3,4,6,7,12-hexahydroindolo[2,3-a] quinolizin-4-one]	0%	0%	0%	0%	> 20%	significant hypnotic effect; also recorded: potent hypnotic activity	less than 27 per cent	Absolute bioavailability oral/IV in Beagle dogs (fasting conditions) 1 < gastric pH < 2 ([1]; beagle, dog, in vivo): >20%; Mean (± S.D.) duration of stages in 8 dogs (minutes) Drowsy ([3]; 10 µmol/Kg oral, Table III): 10.4 (3.9) minutes; Mean (± S.D.) duration of stages in 8 dogs (minutes) REM ([3]; 10 µmol/Kg oral, Table III): 4.4 (4.5) minutes; Mean (± S.D.) duration of stages in 8 dogs (minutes) SWS ([3]; 10 µmol/Kg oral, Table III): 31.5 (17.6) minutes; Mean (± S.D.) duration of stages in 8 dogs (minutes) Sleep ([3]; 10 µmol/Kg oral, Table III): 46.3 (21.3) minutes; Mean (± S.D.) duration of stages in 8 dogs (minutes) Wake ([3]; 10 µmol/Kg oral, Table III): 73.8 (21.3) minutes; Mean (± S.D.) latencies after administration (minutes) Drowsy ([3]; 10 µmol/Kg oral, Table III): 50.4 (19.8) minutes; Mean (± S.D.) latencies after administration (minutes) REM ([3]; 10 µmol/Kg oral, Table III): 93.1 (26.3) minutes; Mean (± S.D.) latencies after administration (minutes) SWS ([3]; 10 µmol/Kg oral, Table III): 58.1 (27.0) minutes
CCC1=C2c3[nH]c4ccc(OC)cc4c3CCN2C(=S)CC1 [Example 7, 9-methoxy-1-ethyl-2,3,4,6,7,12-hexahydroindolo[2,3-a] quinolizine-4-thione]	17.0%	13.0%	5.4%	0%		significant hypnotic effect; also recorded: potent hypnotic activity	less than 27 per cent	Mean (± S.D.) duration of stages in 8 dogs (minutes) Drowsy ([3]; 5.0 µmol/Kg oral, Table III): 13.0 (8.6) minutes; Mean (± S.D.) duration of stages in 8 dogs (minutes) REM ([3]; 5.0 µmol/Kg oral, Table III): 4.4 (6.1) minutes; Mean (± S.D.) duration of stages in 8 dogs (minutes) SWS ([3]; 5.0 µmol/Kg oral, Table III): 18.9 (14.7) minutes; Mean (± S.D.) duration of stages in 8 dogs (minutes) Sleep ([3]; 5.0 µmol/Kg oral, Table III): 35.1 (25.8) minutes; Mean (± S.D.) duration of stages in 8 dogs (minutes) Wake ([3]; 5.0 µmol/Kg oral, Table III): 83.7 (25.1) minutes; Mean (± S.D.) latencies after administration (minutes) Drowsy ([3]; 5.0 µmol/Kg oral, Table III): 59.0 (20.0) minutes; Mean (± S.D.) latencies after administration (minutes) REM ([3]; 5.0 µmol/Kg oral, Table III): 91.1 (28.1) minutes; Mean (± S.D.) latencies after administration (minutes) SWS ([3]; 5.0 µmol/Kg oral, Table III): 74.1 (26.3) minutes
CCC1CCC(=O)N2CCc3c([nH]c4ccc(OC)cc34)C12 (stereo not shown) [Example 8, 9-methoxy-1-ethyl-1,2,3,4,6,7,12,12b-octahydroindolo [2,3-a] quinolizin-4-one]	0%	0%	0%	0%	100%		less than 27 per cent	
COc1ccc2[nH]c3c(c2c1)CCN1C(=S)CCC(c2ccccc2)=C31 [Example 11, 9-methoxy-1-phenyl-2,3,4,6,7,12-hexahydroindolo [2,3-a] [beta]quinolizin 4-thione]	26.0%	27.0%	30.0%	0%			less than 27 per cent	
